Data as given in US11859252B2, “Diagnostic and therapeutic methods for cancer” (Genentech, Inc., priority 2017, dated 2024).
“Also recorded” adds a separate entry of the source.

How the values were obtained:
[1] = test system: 196 lung, colon, skin, and ovarian cancer cell lines; test: 196 cell line screen, HM95573 and cobimetinib co-dilution; type: cell-based
Protocol: Compounds were screened in nine-point dose response using a three-fold dilution. Cells were seeded into 384-well plates 24 hours prior to compound addition. Cells were then incubated with compound for 72 hours or 120 hours before assaying viability (CellTiter-Glo, Promega). Assays were performed in biological triplicate. Cells were incubated (37° C., 5% CO2) in RPMI-1640, 2.5% FBS (72 hour assay) or 5% FBS (120 hour assay), and 2 mM glutamine throughout the assay. The reported IC50 and mean viability metrics are as follows: IC50 is the dose at which the estimated inhibition is 50% relative to untreated wells (i.e., absolute IC50). Mean viability is equivalent to the area under the log-dose/viability curve divided by the total number of tested doses.
For combination synergy studies, cells were plated in 384-well plates (Corning) and treated with varying concentrations of compound, either alone or in combination for 72 hours. Cell viability was determined using CellTiter-Glo Luminescent Cell Viability Assay (Promega, G7573). Synergistic effects were determined using the Bliss independence analysis methods (Greco et al. Pharmacol. Rev. 47: 331-385, 1995; Chou and Talalay. Adv. Enzyme Regul. 22:27-55, 1984; Chou. Cancer Res. 70: 440-446, 2010; Bliss. Ann. Appl. Biol. 25: 31, 1939).

[2] = test system: pMEK, pERK, pRSK, pAKT; test: Immunoblot of pathway markers after compound treatment; type: cell-based; settings: A549 and HCT-116; 1 μM HM95573, 250 nM cobimetinib; FIGS. 5D-5E
Protocol: (§1) Cells lysed in lysis buffer (0.5% NP40, 20 mM Tris, pH 7.5, 137 mM NaCl, 10% glycerol, 1 mM EDTA) plus protease inhibitor mixture-complete mini (Roche Applied Science, 11836170001) and phosphatase inhibitor mix (Thermo, 78426). Lysates were centrifuged at 15,000 rpm for 10 minutes and the protein concentration determined using BCA (Thermo, 23227). Equal amounts of protein were subjected to SDS-PAGE NuPAGE 4-12% Bis-Tris Gel (Novex, WG-1403) and transferred to nitrocellulose membrane (BioRad, 170-4159). After blocking in blocking buffer (Li-Cor, 927-40000), membranes were incubated with the indicated primary antibodies and analyzed either by the addition of secondary antibodies IRDye 680LT Goat anti-Mouse IgG (H+L) (Li-Cor, 926-68050) or IRDye 800CW goat anti-Rabbit IgG (H+L) (Li-Cor, 926-32211). The membranes were visualized on the LiCor Odyssey CLx Scanner.

[3] = test system: KRAS mutant syngeneic CRC xenograft model CT26; test: CT26 tumor growth model; type: in vivo; settings: 5 mg/kg each orally once a day, 21 days, vs either agent alone, FIGS. 5F-5G
[4] = test system: BRAF-CRAF heterodimer; test: CRAF immunoprecipitation (RAF dimerization); type: cell-based
Protocol: (§2) Cells were plated and lysed as described in immunoblotting method. Cell lysates were incubated with anti-CRAF (Millipore 07-396) or anti-BRAF antibody (Millipore 07-453) and 50 μl of Protein A agarose beads (Millipore 16-125) for 2 h at 4° C. After washing with lysis buffer plus protease and phosphatase inhibitor mixtures, protein A beads were incubated with 0.4 μg of unactive MEK1 (Millipore 14-420) in 40 μl of kinase buffer (20 mM MOPS, pH 7.2, 25 mM β-glycerol phosphate, 5 mM EGTA, 1 mM sodium orthovanadate, 1 mM DTT, 120 μM ATP, 18 mM MgCl2) for 30 min at 30° C. Samples were then analyzed by Western blot.

[5] = test system: RAS-GTP; test: Ras activity assay (RAF1-RBD pull-down); type: cell-based
Protocol: Levels of active GTP-loaded Ras were determined by GST-Raf-RBD pull-down assay (Thermo Scientific, 16117). In brief, GST-Raf-RBD fusion proteins were incubated with glutathione beads, and cells were collected in lysis buffer as recommended by the manufacturer. The cell lysates were incubated with the GST-Raf-RBD immobilized beads for 1.5 hours at 4° C. Bound proteins were eluted with SDS sample buffer and analyzed by Western blot.

[6] = test system: NRAS mutant melanoma cell line; test: Viability of NRAS mutant melanoma versus BRAF-V600E and wild-type lines; type: cell-based; settings: separate study; FIGS. 8C and 8D
Protocol: Compounds were screened in nine-point dose response using a three-fold dilution. Cells were seeded into 384-well plates 24 hours prior to compound addition. Cells were then incubated with compound for 72 hours or 120 hours before assaying viability (CellTiter-Glo, Promega). Assays were performed in biological triplicate. […] Mean viability is equivalent to the area under the log-dose/viability curve divided by the total number of tested doses.

[7] = test system: pMEK; test: Immunoblot of pMEK after cobimetinib in KRAS mutant and wild-type cell lines; type: cell-based; settings: for pMEK levels after treatment: cobimetinib 24 hours
Protocol: as §1

[8] = test system: HCT116 colon xenograft tumor; test: HCT116 colon xenograft tumor model; settings: HCT116; LY-3009120 25 mg/kg IP QD; cobimetinib 5 mg/kg PO QD; FIG. 3A
Protocol: The formulations were mixed well by vortexing before dosing. Test articles were stored in a refrigerator set to maintain a temperature range of 4° C.-7° C.
Only animals that appeared to be healthy and that were free of obvious abnormalities were used for each study. Tumor volumes were determined using digital calipers (Fred V. Fowler Company, Inc.) using the formula (L×W×W)/2. […] Mice were weighed twice a week using a standard scale.

[9] = test system: A549 KRAS-mutant lung cancer cell line; test: Tool compound combination screen with AZ-628; type: cell-based; settings: 1 μM AZ-628 versus DMSO, FIG. 1D-1E
Protocol: A compound library comprising 480 compounds arrayed in 9-point dose response was screened in the absence or presence of a fixed dose of either AZ-628 or DMSO in A549 cells. A549 cells were seeded into 384 well plates, and compound was added 24 h later. Cell viability was determined 120 h post-compound addition (CellTiter Glo). Curves were fitted, and both IC50 and mean viability metrics were calculated. The IC50 is the dose at which inhibition is 50% relative to untreated wells. The mean viability is the average of the fitted viabilities at each tested dose. Mean viability is equivalent to the area under the log-dose/viability curve divided by the total number of tested doses. All data were fitted using Genedata Screener (GDS) software. The combination metric was the difference in mean viability between the AZ-628 treated arm and the DMSO treated arm for each compound.

[10] = target: T1, RAF dimers (Homo sapiens, UniProt P04049+P15056); test: In vitro kinase assay of immunoprecipitated RAF with unactive MEK; type: biochemical
T1 construct: Cobimetinib-induced RAF dimers were immunoprecipitated from A549 cells; endogenous in cells; A549, H2122 and HCT116 for cobimetinib induction
T1 sequence (P04049 whole entry): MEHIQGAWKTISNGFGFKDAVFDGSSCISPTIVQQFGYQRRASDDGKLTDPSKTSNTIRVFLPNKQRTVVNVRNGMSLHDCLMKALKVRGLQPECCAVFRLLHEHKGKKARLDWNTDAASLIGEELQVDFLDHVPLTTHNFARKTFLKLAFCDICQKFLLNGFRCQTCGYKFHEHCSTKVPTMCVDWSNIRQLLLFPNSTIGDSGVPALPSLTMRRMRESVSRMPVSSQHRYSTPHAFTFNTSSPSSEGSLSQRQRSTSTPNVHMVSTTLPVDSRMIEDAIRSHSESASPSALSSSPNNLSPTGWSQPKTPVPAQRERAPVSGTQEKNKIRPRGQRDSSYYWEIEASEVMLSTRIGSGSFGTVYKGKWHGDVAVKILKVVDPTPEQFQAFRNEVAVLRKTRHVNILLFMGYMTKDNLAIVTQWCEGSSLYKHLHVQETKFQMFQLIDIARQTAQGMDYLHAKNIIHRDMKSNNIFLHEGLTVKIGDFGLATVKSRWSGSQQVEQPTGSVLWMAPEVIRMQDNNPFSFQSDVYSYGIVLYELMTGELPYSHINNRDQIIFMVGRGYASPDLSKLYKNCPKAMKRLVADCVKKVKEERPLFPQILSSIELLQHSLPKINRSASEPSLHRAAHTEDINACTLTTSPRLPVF
T1 sequence (P15056 2-766 limits assumed): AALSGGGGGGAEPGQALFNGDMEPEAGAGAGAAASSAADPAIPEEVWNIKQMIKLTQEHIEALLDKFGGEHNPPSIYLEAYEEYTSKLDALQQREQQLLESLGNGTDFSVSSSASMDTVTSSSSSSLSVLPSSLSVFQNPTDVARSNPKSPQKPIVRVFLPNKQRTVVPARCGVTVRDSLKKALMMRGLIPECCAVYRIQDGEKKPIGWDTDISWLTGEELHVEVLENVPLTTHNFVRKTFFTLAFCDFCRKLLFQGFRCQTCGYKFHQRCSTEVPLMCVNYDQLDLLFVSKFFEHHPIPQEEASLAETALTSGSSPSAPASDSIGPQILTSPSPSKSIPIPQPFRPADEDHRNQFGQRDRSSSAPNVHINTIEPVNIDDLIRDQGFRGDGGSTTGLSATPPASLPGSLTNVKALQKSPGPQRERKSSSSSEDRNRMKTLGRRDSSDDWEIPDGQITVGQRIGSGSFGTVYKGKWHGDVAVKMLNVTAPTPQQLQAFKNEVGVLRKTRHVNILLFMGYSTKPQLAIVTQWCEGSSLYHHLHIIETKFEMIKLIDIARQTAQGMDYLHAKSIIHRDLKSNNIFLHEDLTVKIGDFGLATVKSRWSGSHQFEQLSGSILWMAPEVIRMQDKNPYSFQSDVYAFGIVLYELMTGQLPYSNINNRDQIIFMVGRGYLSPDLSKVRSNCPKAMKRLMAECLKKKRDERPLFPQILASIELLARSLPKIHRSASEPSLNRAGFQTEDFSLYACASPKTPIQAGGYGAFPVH
Protocol: as §2

[11] = test system: pEGFR; test: Immunoblot of pEGFR after cobimetinib; type: cell-based; settings: cobimetinib 250 nM, 24 hours; FIG. 6K
Protocol: as §1

[12] = test system: A549 cells; test: Clonogenic (colony growth) assay; type: cell-based; settings: 8-day clonogenic; 50-100 nM cobimetinib, 100 nM AZ-628
Protocol: Cells were plated in duplicate in 6-well plates at 10,000 cells/well, allowed to attach overnight and treated for 8 days with the indicated compounds. Media with appropriate compounds was replenished every 72 hours. At 8 days cells were rinsed once with PBS, fixed and stained with crystal violet solution (Sigma Aldrich, HT90132) for 20 minutes and washed with water.

Question: `Cc1ccc2c(Nc3cccc(Cl)c3F)nccc2c1NC(=O)c1csc2c(N)ncnc12` [HM95573] was tested. Which “association of combination sensitivity with KRAS-G13D” value ([1]; HM95573 and cobimetinib, colorectal and lung lines, FIG. 6D) did it give?
Answer: Its value is “This trend was most evident in colorectal cancer lines”.

Question: What about the “synergy score (positive Bliss excess) with cobimetinib by genotype” value ([1]; co-dilution with cobimetinib, three days, FIG. 5H) of the same compound?
Answer: The value was “significantly higher synergy scores were observed in RAS mutant cell lines compared to either BRAF-V600 mutants or wild-type; also recorded: greater synergy in RAS mutant cell lines and a subset of RAS/RAF wild-type cell lines relative to BRAF-V600 cell lines”.

Question: And the “combination activity with cobimetinib on pMEK, pERK, pRSK” value [2]?
Answer: Its value is “combination activity was also observed; also recorded: combination activity is observed”.

Question: And the “tumor growth inhibition (TGI), combination with cobimetinib” value [3]?
Answer: Its value is “improved tumor growth inhibition (TGI) in vivo”.

Question: Which “concentration at which BRAF-CRAF heterodimer formation and increase in kinase activity occur” value ([4]; A549, dose-dependent, FIG. 4E) does the source give for `O=C(c1ccc(F)c(F)c1Nc1ccc(I)cc1F)N1CC(O)([C@@H]2CCCCN2)C1` [cobimetinib] here?
Answer: Its value is 50 to 100 nM.

Question: What about the “BRAF co-immunoprecipitation with CRAF” value ([4]; KRAS mutant cell lines (A549, H2122, and HCT116), FIG. 4A) of the same compound?
Answer: The value was “BRAF strongly co-immunoprecipitated with CRAF”.

Question: And the RAS-GTP levels ([5]; KRAS mutant lines, cobimetinib treatment, FIG. 4A)?
Answer: Its RAS-GTP levels is “elevated RAS-GTP levels at baseline and upon cobimetinib treatment; also recorded: increased RAS-GTP levels”.

Question: And the “active RAS-GTP in response to treatment” value ([5]; panel of colorectal cancer cell lines, FIG. 5I)?
Answer: The value was “Only cell lines showing synergy showed increased active RAS-GTP in response to cobimetinib treatment”.

Question: And the “cell viability and 1050, NRAS mutant vs BRAF-V600E” value [6]?
Answer: Its value is “showed greater efficacy in the BRAF-V600E cell line relative to the NRAS mutant cell line”.

Question: And the “pMEK levels after treatment” value ([7]; KRAS mutant vs KRAS wild-type cells, FIG. 4A)?
Answer: Its value is “an increase in the pMEK levels in the KRAS mutant cells but not the KRAS wild-type cells”.

Question: And the “pMEK levels after treatment” value ([7]; synergistic vs non-synergistic colon and lung lines, FIGS. 4B-4D)?
Answer: The value was “an increase in the pMEK levels in the KRAS mutant and wild-type synergistic cells but not the KRAS mutant and wild-type non-synergistic cells”.

Question: What about the “induction of pMEK, KRAS-G13D vs non-KRAS-G13D” value ([7]; colorectal cell lines, cobimetinib 250 nM, 24 hr, FIG. 6E) of the same compound?
Answer: The value was “stronger induction of pMEK in G13D cell lines; also recorded: more enhanced induction of pMEK following MEK inhibition relative to other KRAS mutants”.

Question: What about the “tumor growth, single agent” value [8] of the same compound?
Answer: Its value is “modestly inhibited tumor growth”.

Question: What about the “hit ranking / mean viability difference with AZ-628” value [9] of the same compound?
Answer: The value was “top hit; also recorded: scored highest among the compounds tested”.

Question: What about the “kinase activity of RAF dimers after treatment” value ([10]; KRAS mutant cell lines, vs DMSO, FIG. 4A) of the same compound?
Answer: Its value is “highly active”.

Question: What about the “pMEK levels in in vitro RAF kinase assay” value ([10]; colorectal lines with or without synergy, cobimetinib, FIG. 5B-5C) of the same compound?
Answer: The value was “strong increases in pMEK levels after cobimetinib treatment were observed, primarily in the lines showing synergy”.

Question: And the “EGFR activation (pEGFR levels)” value [11]?
Answer: Its value is “little evidence of EGFR activation”.

Question: What about the “single-agent effect on cell growth” value [12] of the same compound?
Answer: Its value is “had little effect on cell growth on their own”.
